ChEMBL document CHEMBL3751777, “Important Hydrogen Bond Networks in Indoleamine 2,3-Dioxygenase 1 (IDO1) Inhibitor Design Revealed by Crystal Structures of Imidazoleisoindole Derivatives with IDO1” (J Med Chem, 2016)

Columns and labels:
[1] = molecular target: T1, Indoleamine 2,3-dioxygenase 1 (Homo sapiens, UniProt P14902); assay: Inhibition of recombinant human IDO1 assessed as conversion of […] incubated for 1 hr by fluorescence analysis
[2] = molecular target: T1, Indoleamine 2,3-dioxygenase 1; assay: Inhibition of IDO1 in IFNgamma-stimulated human HeLa cells incubated for 24 hrs; assay type: cell-based
[3] = tested on: Mus musculus; assay: Reduction of kynurenine in LPS-stimulated mouse tissue at 50 mg/kg, po by LC/MS/MS analysis; assay type: functional; parameters: scale not given: the % may be the effect or the level left
[4] = tested on: Mus musculus; assay: Reduction of kynurenine in LPS-stimulated mouse plasma at 50 mg/kg, po by LC/MS/MS analysis; assay type: functional; parameters: scale not given: the % may be the effect or the level left
[5] = Toxicity in rat administered as bid for 28 days; assay type: organism-based; details: in vivo
[6] = Toxicity in dog administered as bid for 28 days; assay type: organism-based, Canis lupus familiaris; details: in vivo

T1 sequence (P14902 whole entry): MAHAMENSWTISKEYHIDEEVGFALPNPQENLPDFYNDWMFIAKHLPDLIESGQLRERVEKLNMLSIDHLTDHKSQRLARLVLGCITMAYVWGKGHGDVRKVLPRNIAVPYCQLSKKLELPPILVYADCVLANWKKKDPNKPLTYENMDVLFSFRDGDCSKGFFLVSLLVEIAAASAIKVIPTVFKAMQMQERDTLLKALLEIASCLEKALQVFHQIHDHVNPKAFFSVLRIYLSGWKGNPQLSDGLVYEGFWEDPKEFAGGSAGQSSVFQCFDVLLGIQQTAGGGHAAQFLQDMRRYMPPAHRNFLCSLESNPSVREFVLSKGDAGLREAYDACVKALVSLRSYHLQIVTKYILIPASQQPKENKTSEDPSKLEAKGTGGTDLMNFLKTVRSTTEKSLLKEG

Row | Structure (SMILES) | IC50 [1] [µM] | EC50 [2] [µM] | further results
1 | OC(Cn1c2ccccc2c2cccnc21)C1CCCCC1 (stereo not drawn) | > 10 | – | –
2 | Cc1ncc2n1C(CC(O)C1CCCCC1)c1ccccc1-2 (stereo not drawn) | > 10 | > 10 | –
3 | OC(Cn1c2ccccc2c2ccncc21)C1CCCCC1 (stereo not drawn) | > 10 | – | –
4 | OC(CC1c2ccccc2-c2cncn21)C1CCCCC1 (mixture of isomers) | – | – | Activity [3]: 50%; Activity [4]: 50%; NOAEL at 672 h [5]: 80 mg/kg/day; NOAEL at 672 h [6]: 80 mg/kg/day

Now from value to compound, other results behind:

Row | IC50 [1] [µM] | EC50 [2] [µM] | Structure (SMILES) | further results
5 | > 10 | – | O=C(Cn1c2ccccc2c2cccnc21)C1CCCCC1 | –
6 | 1.14 | > 10 | OC(CC1Nc2ccccc2-c2cncn21)C1CCCCC1 (stereo not drawn) | –
7 | > 10 | > 10 | OC(CC1c2ccccc2-c2cnnn21)C1CCCCC1 (stereo not drawn) | –
